Data on 13 compounds can be found in patent US6498945B1, “Sonodynamic therapy using an ultrasound sensitizer compound” (Amersham Health AS, priority 1997, dated 2002).

For data set [1] the following is noted: cited from earlier work.
The subject of data set [2] is HT-29 tumors. Briefly: Biodistribution / tumor localization in immunodeficient mice with HT-29 tumors. Particulars: female immunodeficient mice with HT-29 tumors.
Description: (§1) FIG. 2A is a graph of comparative biodistribution data of contrast agent Polymer 3 (NC100448) versus indocyanine green as control in female immunodeficient mice containing HT-29 tumors at one hour post intravenous injection of phosphate buffered saline solutions of each.
(§2) FIG. 2B is a graph of comparative biodistribution data of contrast agent Polymer 3 (NC100448) versus indocyanine green as control in female immunodeficient mice containing HT-29 tumors at three hours post intravenous injection of phosphate buffered saline solutions of each.
For data set [3], the system named is leucocytes (white blood cells). The data set is described as follows: Fate in dog blood (confocal scanning microscope, flow cytometry). The data set is classed as in vivo. Particulars: injected into beagle dogs; flow cytometry and fluorescence microscopy. In general terms: In flow cytometry, cells or beads pass a laser one at a time.
Data set [4] relates to HT-29 tumors. Particulars: mouse, in vivo.
Description: as §1, §2
The next data set concerns the target STa receptor (Homo sapiens, UniProt P25092). Briefly: Competitive inhibition of the STa receptor. Format: binding. Here is the method:
Isolation and purification were done using the same HPLC conditions yielding about 0.1 mg yellow product. Ultra violet maxima in 1/1 water/methanol 10 mM ammonium acetate were: 202 nm (a 0.822), 277 nm (a 0.096), 457 nm (a 0.096), 482 nm (a 0.107). Mass spectrum (electrospray, negative): M−H 2359; M+Na 2381; theoretical M 2360.

The test system of data set [5] is HL-60 human peripheral blood promyelocytic leukemia cells. Briefly: Sonication of HL-60 cell suspensions in vitro, cell death by Trypan Blue and LDH. The data set is classed as cell-based. Particulars: 148 nanomoles/ml, insonated 60 and 120 seconds, 65 volts, 47 kHz bath. How it is done: HL-60 human peripheral blood promyelocytic leukemia cells (American Type Culture Collection, Rockville, Md.) were grown at 37° C. in a 5% CO2/air atmosphere, in a 1:1 mixture of DMEM and IMEM fortified with 10% fetal bovine serum. Before use, the cells were centrifuged (5 min. at 1500 rpm), washed with phosphate buffered saline (PBS), and then resuspended in PBS, the volume being adjusted to provide cell suspensions containing […]. These were stored in crushed ice until used.
Viability was assessed by staining with Trypan Blue dye. 50 μl of the suspension were mixed with […] Trypan Blue solution (0.4%, Sigma), and the cell concentration counted using a Neubauer-type hemocytometer. Four or five large squares were counted, the blue (dead) cells being counted separately from the unstained (live) cells, and the results averaged. […]
For insonation, the voltage was set to the required value, the power was turned on, and the sample exposed for the required amount of time (secs.). Viability was again assessed with Trypan Blue, the samples were then centrifuged for 5 minutes at 2000 rpm, and a sample of cell free supernatant liquid taken for lactate dehydrogenase (LDH) measurement. […] The LDH was measured by a standard procedure using a Beckman Synchron CX5CE Instrument, the results were measured in IU/l, and afforded a quantitative measurement of cell death in the samples. […]

“Also recorded” adds a separate entry of the source. Read-outs that look alike come from different tables or passages of the source.

Chain of STa receptor (P25092 24-1073, species assumed): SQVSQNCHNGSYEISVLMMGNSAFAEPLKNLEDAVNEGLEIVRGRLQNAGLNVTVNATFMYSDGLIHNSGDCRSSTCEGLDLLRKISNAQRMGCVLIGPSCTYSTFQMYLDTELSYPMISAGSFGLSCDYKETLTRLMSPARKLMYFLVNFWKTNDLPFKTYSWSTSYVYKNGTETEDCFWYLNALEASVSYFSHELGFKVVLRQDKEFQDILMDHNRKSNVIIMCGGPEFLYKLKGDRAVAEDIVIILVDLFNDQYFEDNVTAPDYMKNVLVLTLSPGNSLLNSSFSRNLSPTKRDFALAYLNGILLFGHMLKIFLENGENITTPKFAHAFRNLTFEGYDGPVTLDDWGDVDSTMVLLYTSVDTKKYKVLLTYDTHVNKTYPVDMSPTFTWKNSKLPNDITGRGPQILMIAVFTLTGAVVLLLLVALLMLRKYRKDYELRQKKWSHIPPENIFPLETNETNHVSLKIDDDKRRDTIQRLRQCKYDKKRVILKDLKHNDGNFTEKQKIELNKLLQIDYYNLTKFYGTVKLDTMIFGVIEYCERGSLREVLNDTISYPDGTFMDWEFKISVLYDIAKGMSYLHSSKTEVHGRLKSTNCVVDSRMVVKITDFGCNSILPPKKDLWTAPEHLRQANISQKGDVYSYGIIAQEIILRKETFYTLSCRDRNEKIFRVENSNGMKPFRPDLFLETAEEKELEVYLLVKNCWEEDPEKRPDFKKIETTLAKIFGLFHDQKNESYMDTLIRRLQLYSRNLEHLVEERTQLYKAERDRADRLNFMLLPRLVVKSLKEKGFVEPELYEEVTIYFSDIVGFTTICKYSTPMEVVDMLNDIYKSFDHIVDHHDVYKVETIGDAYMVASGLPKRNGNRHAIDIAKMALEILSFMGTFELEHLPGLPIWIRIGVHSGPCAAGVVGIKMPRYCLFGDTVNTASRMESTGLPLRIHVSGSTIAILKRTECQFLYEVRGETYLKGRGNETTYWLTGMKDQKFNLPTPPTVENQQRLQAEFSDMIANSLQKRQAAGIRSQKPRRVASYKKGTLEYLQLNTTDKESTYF

With `CCOC(=O)c1c(I)c(NS(=O)(=O)c2cccc3c(N(C)C)cccc23)c(I)c(N(CC)C(C)=O)c1I` [Example 52, Ethyl 3-(N-Acetyl-N-ethylamino)-5-[(5-dimethylamino-1-naphthylsulfonyl)amino]-2,4,6-triiodobenzoate], the melting point (commonly the temperature, or range, at which the solid turns liquid) lay within 238 to 240 °C. For the compound `Oc1ccc2ccccc2c1N=Nc1ccc(N=Nc2ccccc2)cc1` [Sudan III], the “solubility in sesame oil” value in data set [1] (sesame oil) is given as “soluble in sesame oil”. Moreover, in data set [1] (water), the solubility in water result is listed as “very insoluble in water”. As to `CC1(C)C(/C=C/C=C/C=C/C=C2\N(CCCCS(=O)(=O)O)c3ccc4ccccc4c3C2(C)C)=[N+](CCCCS(=O)(=O)[O-])c2ccc3ccccc3c21` [indocyanine green], the “detection in the tumor (FIG. 2A)” value in the data set with HT-29 tumors [2] (one hour post intravenous injection, PBS solution) is recorded as “negligibly detected”. Besides, the “detection in the tumor (FIG. 2B)” value with HT-29 tumors [2] (three hours post intravenous injection, PBS solution) is recorded as “negligibly detected”. In the case of “Air-exposed-Tetronic-908-conjugated-to-fluorescein Isothiocyanate”, in data set [3], the “binding to blood cells” value is “binds to a specific cell class within the blood; also recorded: attached to leucocytes (white blood cells)”. In the case of ClAlPc(SO2NHPEG5000)4 [Example 45], in the data set on HT-29 tumors [4], the “injected dose localized in the tumor after one hour” value (“injected dose localized” for short) is 2.5 % of the injected dose. With “Thiourea Linked 5-fluorescein to STa (syn. 2) [Example 79]”, the “competitive inhibitor of the STa receptor” value on STa receptor was “tested positive”.

Consider “[Melamine][SO2ClAlPc(SO3H)3]3 [Example 46]”, for which, in the data set on HT-29 tumors [4], the “injected dose localized” value is recorded as 0.1 % of the injected dose. Take “[NH(PEG3400)NHSO2PcAlCl(SO3H)2SO2]n [Example 43]”: the “injected dose localized” value with HT-29 tumors [4] was 4 % of the injected dose.

In the case of “bisthioether 2:1 dye:polymer reaction product between 2-[2-[2-chloro-3-[[1,3-dihydro-1,1,-dimethyl-3-(3-sulfopropyl)-2H-benz[e]indol-2-ylidene]ethylidene]-5-(ethoxycarbonyl)-1-cyclohexen-1-yl]ethenyl]-1,1-dimethyl-3-(3-sulfopropyl)-1H-benz[e]indolium, inner salt, sodium salt and disodium PEG3,400-α,ω-dithiolate [Polymer 3]”, in the data set with HT-29 tumors [4], the “concentration in the blood at three hours relative to one hour” value is listed as “decreased” and the “concentration in the tumor at three hours relative to one hour” value is listed as “increased”. Also, in the data set with HT-29 tumors [4] (iv), the “detection in the tumor (FIG. 2A)” value was “detected in the tumor” and the “detection in the tumor (FIG. 2B)” value was “detected in the tumor”.

On to “chloroaluminum phthalocyanine tetrasulfonate”, for which the “cell killing under ultrasound (FIG. 1)” value in data set [5] is “Enhancement of Cell Killing”. As to “copolymer of PEG3400-α,ω-diamine and aluminum(III)phthalocyanine tetrasulfonyl chloride [Example 1]”, in the data set with HT-29 tumors [2] (solution in phosphate buffered saline injected, one hour), the “injected dose localized” value is 4 % of the injected dose.

For the compound “copolymer of PEG 5000-α,ω-diamine and aluminum(III)phthalocyanine tetrasulfonyl chloride [Example 4]”, in the data set on HT-29 tumors [4], the “injected dose localized” value was 2.5 % of the injected dose. The same measure, in the same setting: as for “copolymer of melamine and aluminum(III)phthalocyanine tetrasulfonyl chloride [Example 5]”, the figure is 0.1 % of the injected dose.
